Data: article PMC6410202, “Dual Action of the PN159/KLAL/MAP Peptide: Increase of Drug Penetration across Caco-2 Intestinal Barrier Model by Modulation of Tight Junctions and Plasma Membrane Permeability” (Pharmaceutics, 2019)

Legend:
Caco-2 epithelial cells = assay: MTT assay, Caco-2 cell viability; assay type: cell-based, human; conditions: 1-h treatment
Method: The human Caco-2 intestinal epithelial cell line was purchased from ATCC (cat.no. HTB-37). Caco-2 cells were grown in DMEM/HAM’s F-12 culture medium with stable glutamine (Life Technologies, Gibco, Carlsbad, CA, USA) supplemented with 10% fetal bovine serum (Life Technologies, Gibco, Carlsbad, CA, USA and 50 μg/mL gentamycin in a humidified incubator with 5% CO2 at 37 °C. All plastic surfaces were coated with 0.05% rat tail collagen in sterile distilled water before cell seeding.
The PN159 peptide stock solution (5 mM) was prepared freshly in sterile DMSO. Treatment solutions were further diluted in Ringer-Hepes (150 mM NaCl, 6 mM NaHCO3, 5.2 mM KCl, 2.2 mM CaCl2, 0.2 mM MgCl2, 2.8 mM D-glucose, 5 mM Hepes; pH 7.4) or cell culture medium. Final concentrations of the peptide in treatment solutions were as follows: 1, 3, 10, 30 and 100 µM for cell viability assays; 1, 3, 10 and 30 µM for the barrier integrity assays and 10 µM for the recovery measurements.
For the cell viability assays Caco-2 epithelial cells were seeded to 96-well plates at the density of 6 × 10^3 cells/well (Orange Scientific) and cultured for 3-5 days. Confluent cultures were treated with PN159 peptide (1, 3, 10, 30 and 100 μM) in phenol red free DMEM (Life Technologies, Gibco, Carlsbad, CA, USA) for 1-h. This viability assay was performed at three different time points: (i) immediately after the 1-h treatment, (ii) at one-day recovery, (iii) at one-week recovery. To determine 100% toxicity, cells were incubated with 1 mg/mL Triton X-100 detergent. After treatment the medium was changed and 0.5 mg/mL MTT (3-(4,5-dimethyltiazol-2-yl)-2,5-diphenyltetrazolium bromide) solution was added to the cells for 3 h. During the incubation cells were kept in a CO2 incubator. The metabolic activity of cells is reflected by the conversion of the yellow MTT dye to purple formazan. Formazan crystals were dissolved in DMSO and the amount of converted dye was determined by measuring absorbance at 595 nm wavelength with a microplate reader (Fluostar Optima, BMG Labtechnologies, Ortenberg, Germany). Cell viability and/or metabolic activity was calculated as percentage of dye conversion by non-treated cells.

Caco-2 cells [1] = assay: Impedance measurement (RTCA), Caco-2 cells; assay type: cell-based; conditions: PN159 1-100 μM, 1-h or one-day treatment
Method: Kinetics of epithelial cell reaction to PN159 peptide treatment was monitored by impedance measurement at 10 kHz (RTCA-SP instrument, ACEA Biosciences, San Diego, CA, USA). Impedance measurement is non-invasive, label-free and real time, and linearly correlates with adherence, growth, number and viability of cells. For background measurements 50 μL cell culture medium was added to the wells, then cells were seeded at a density of 6 × 10^3 cells/well to the coated 96-well plates with integrated gold electrodes (E-plate 96, ACEA Biosciences). Cells were cultured for 5–7 days in a CO2 incubator at 37 °C and monitored every 10 min until the end of experiments. Cells were treated with PN159 peptide solutions at 1, 3, 10, 30 and 100 μM concentrations at the beginning of the plateau phase of growth and the effects were followed for 1-h or 24 h. To measure cell recovery, peptide solutions were changed to culture medium and the impedance was monitored for one week. Culture medium was changed every 2 days. Caco-2 cells were also treated with the three selected CPPs, Pep-1, R8 and φ-peptide, at 100 μM concentrations at the beginning of the plateau phase of cell growth for 24-h. Triton X-100 detergent (1 mg/mL) was used as a reference compound to induce cell death. Cell index was defined as Rn-Rb at each time point of measurement, where Rn is the cell-electrode impedance of the well when it contains cells and Rb is the background impedance of the well with the medium alone.

Caco-2 cells [2] = assay: Immunostaining of junctional proteins and F-actin; assay type: cell-based, human; conditions: 1 h
Method: Morphological changes in interepithelial junctions after treatment with different concentrations of CPPs (100 μM) and PN159 peptide (1, 3, 10, 30 and 100 μM) were followed by immunostaining for claudin-1 integral membrane tight junction protein, β-catenin and zonula occludens protein-1 (ZO-1) cytoplasmic linker proteins. F-actin was stained by fluorescently labeled phalloidin. Treatments lasted for 1 h. After peptide treatment cell layers were washed with PBS and fixed with a 1:1 mixture of ice cold acetone and methanol for 2 min. Cells were blocked with 3% bovine serum albumin in PBS and incubated with primary antibodies mouse anti-claudin-1 and -4, rabbit anti-ZO-1 and rabbit anti-β-catenin (Life Technologies, Carlsbad, CA, USA) overnight. Fluorescent Atto 647N-phalloidin (ATTO-TEC GmbH, Germany) lasted for 1 h. Incubation with Alexa Fluor-488-labeled anti-mouse and anti-rabbit secondary antibodies (Life Technologies, Invitrogen, USA) lasted for 1 h. Bis-benzimide dye (Hoechst 33342) was used to stain cell nuclei. After mounting (Fluoromount-G; Southern Biotech, Birmingham, AL, USA) the samples staining was visualized by a Leica TCS SP5 confocal laser scanning microscope (Leica Microsystems GmbH, Wetzlar, Germany) and Visitron spinning disk confocal system (Visitron Systems GmbH, Puchheim, Germany).

[3] = system: Enterobacter cloacae spp. cloacae (ATCC 13047); assay: microbe, parasite or virus in culture; conditions: Muller–Hinton broth, 18 h
Method: (§1) The MIC of PN159 on the 6 sensitive and resistant ESKAPE pathogenic strains was determined in cation-adjusted Muller–Hinton broth. […] Minimum inhibitory concentrations (MICs) were determined by using a standard serial broth dilution technique. Briefly, 11-step serial dilutions were prepared in 96-well microtiter plates with three biological replicates per strain. Pathogens were inoculated into each well at a density of 5×10^5 bacteria/mL, and the plates were incubated at 37 °C. Plates were shaken at 300 rpm during incubation for 18 h. Cell growth was monitored by measuring the optical density (OD600 value, Synergy 2 microplate reader BioTek Instruments Inc, Winooski, VT, USA). […] As reference compounds we tested the antimicrobial activity of three bactericidal drugs with different modes of action.

[4] = system: Pseudomonas aeruginosa (ATCC 27853); assay: microbe, parasite or virus in culture; conditions: Muller–Hinton broth, 18 h
Method: as §1

claudin-5 = system: claudin-5; design: method as in PMID 26869428; conditions: affinity measurements; cited from earlier work

SMILES: CC(C)C[C@H](NC(=O)[C@H](C)NC(=O)[C@H](CCCCN)NC(=O)[C@H](CC(C)C)NC(=O)[C@H](C)NC(=O)[C@H](CC(C)C)NC(=O)[C@H](CCCCN)NC(=O)[C@H](CC(C)C)NC(=O)[C@H](C)NC(=O)[C@H](CC(C)C)NC(=O)[C@@H](N)CCCCN)C(=O)N[C@@H](CCCCN)C(=O)N[C@@H](C)C(=O)N[C@@H](C)C(=O)N[C@@H](CC(C)C)C(=O)N[C@@H](CCCCN)C(=O)N[C@@H](CC(C)C)C(=O)N[C@@H](C)C(N)=O [PN159]
- Non-toxic concentration (MTT and impedance) (Caco-2 epithelial cells; Caco-2): ≤ 10 µM
- Toxicity (MTT and impedance) (Caco-2 epithelial cells; PN159 30 μM): reversible
- Toxicity (MTT and impedance) (Caco-2 epithelial cells; PN159 100 μM): toxic
- Reversibility of cytotoxic effect (MTT) (Caco-2 epithelial cells; PN159 100 μM, 1-day or 1-week recovery): not reversible after one day or even one week
- Cell viability (MTT) (Caco-2 epithelial cells; PN159 1–10 μM, Caco-2): did not decrease cell viability
- Cell viability (MTT) (Caco-2 epithelial cells; PN159 30 and 100 μM, Caco-2): cell damage
- Cell impedance (normalized cell index) (Caco-2 cells [1]): only the two highest peptide concentrations decreased the cell impedance
- Junctional and cell morphology (claudin-1, ZO-1, β-catenin, F-actin) (Caco-2 cells [2]; PN159 1 μM): slight effect on cell morphology
- Junctional and cell morphology (claudin-1, ZO-1, β-catenin, F-actin) (Caco-2 cells [2]; PN159 10 μM): drastic change in actin cytoskeleton and epithelial junctional morphology
- MIC [3]: 31.0 µM
- MIC [4]: 46.4 µM
- Binding (claudin-5): in the micromolar range
